For data set [1], the system named is different types of solid tumours. As to the kind of experiment: Viability of different types of solid tumour cell lines. To be noted: HCC1954, A375P, HCT116, HT1080, pancreatic cancer lines 185 and 354. The data set is classed as cell-based. The source says: We studied the effect of I3C alone or in combination with different drugs commonly used in the clinic for the targeted treatment of solid tumours of various origins. We used the ductal breast cancer line HCC1954 and the drug Lapatinib, the melanoma line A375P and the drug Vemurafenib, the colorectal cancer line HCT116 and the drug 5-fluorouracil, the sarcoma line HT1080 and the experimental drug ADC, and two primary pancreatic cancer lines 185 and 354 and the drug Abraxane. Results obtained (Fig. 11) shown that I3C has no effect on different types of solid tumours.

For data set [2] the following is noted: in blood; cited from earlier work.

For the molecule `OCc1c[nH]c2ccccc12` [I3C, (1H-indol-3-yl)methanol], the “effect on solid tumours (viability)” value in data set [1] is “no effect”. In addition, the bioavailability in data set [2] is reported as 22 µM.

The values above are taken from patent EP4309654A1, “INDOLE-3-CARBINOL IN COMBINATION WITH IBRUTINIB FOR THE TREATMENT OF B LYMPHOID NEOPLASMS” (Consejo Superior de Investigaciones Científicas (CSIC), priority 2022, dated 2024).
